Source: US20100298141A1, “SUBSTITUTED PYRIDINE N-OXIDE HERBICIDES” (E. I. DU PONT DE NEMOURS AND COMPANY, priority 2007, published 2010)

Experiments:
[1] = system: crabgrass; test: Test C pre-/postemergence test; assay type: in vivo, Digitaria sanguinalis; details: for Plant response rating, Crabgrass, Large: Postemergence, scale 0 to 100, 0 no effect, 100 complete control
In short: (§1)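 Seeds were planted and treated preemergence with test chemical in a non-phytotoxic solvent mixture containing surfactant. Postemergence applications of the same formulation went onto plants 2 to 18 cm tall (1- to 4-leaf stage). A dash marks no test result.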

[2] = system: giant foxtail; test: Test C pre-/postemergence test; assay type: in vivo, Setaria faberii; details: for Plant response rating, Foxtail, Giant: scale 0 to 100, 0 no effect, 100 complete control
In short: as §1

[3] = system: johnsongrass; test: Test C pre-/postemergence test; assay type: in vivo, Sorghum halepense; details: for Plant response rating, Johnsongrass: scale 0 to 100, 0 no effect, 100 complete control
In short: as §1

[4] = system: kochia; test: Test C pre-/postemergence test; assay type: in vivo, Kochia scoparia; details: for Plant response rating, Kochia: scale 0 to 100, 0 no effect, 100 complete control
In short: as §1

[5] = system: lambsquarters; test: Test C pre-/postemergence test; assay type: in vivo, Chenopodium album; details: for Plant response rating, Lambsquarters: scale 0 to 100, 0 no effect, 100 complete control
In short: as §1

[6] = system: eastern black nightshade; test: Test C pre-/postemergence test; assay type: in vivo, Solanum ptycanthum
In short: as §1

[7] = system: common ragweed; test: Test C pre-/postemergence test; assay type: in vivo, Ambrosia elation; details: for Plant response rating, Ragweed: scale 0 to 100, 0 no effect, 100 complete control
In short: as §1

[8] = system: velvetleaf; test: Test C pre-/postemergence test; assay type: in vivo, Abutilon theophrasti; details: Postemergence; for Plant response rating, Velvetleaf: scale 0 to 100, 0 no effect, 100 complete control
In short: as §1

[9] = system: rice; test: Test C flooded paddy test; assay type: in vivo, Oryza sativa; details: Flood
In short: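 Under a constant 3 cm flood, test compounds went directly into the paddy water. Following 13 to 15 days of greenhouse growth, treated species and controls were compared by eye.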

[10] = preemergence, 125 g ai/ha, scale 0 (no effect) to 100 (complete control)
[11] = 31 g ai/ha, Preemergence, scale 0 to 100
[12] = 62 g ai/ha, preemergence, scale 0 (no effect) to 100 (complete control)

CC(c1c(C(F)(F)F)nn(C)c1OC(F)F)S(=O)(=O)c1cccc[n+]1[O-] (centres unmarked) [Compound 5]
55: Plant response rating, Ragweed ([7]; Postemergence, 250 g ai/ha)
10: Plant response rating, Johnsongrass ([3]; Postemergence, 250 g ai/ha)
5: Plant response rating, Foxtail, Giant ([2]; Postemergence, 62 g ai/ha) | Plant response rating (0 to 100), Ragweed ([7]; Postemergence, 62 g ai/ha) | Plant response rating, Ragweed ([7]; Postemergence, 125 g ai/ha) | Plant response rating, Velvetleaf ([8]; 125 g ai/ha)
80: Kochia plant response rating [4, 11] | Plant response rating, Rice ([9]; 62 g ai/ha, scale 0 to 100, 0 no effect, 100 complete control, 13 to 15 days)
98: Foxtail, Giant plant response rating [2, 10]
95: Foxtail, Giant plant response rating [2, 11] | Foxtail, Giant plant response rating [2, 12]
100: Plant response rating (0 to 100), Crabgrass, Large ([1]; Preemergence, 250 g ai/ha) | Crabgrass, Large plant response rating [1, 10] | Plant response rating (0 to 100), Foxtail, Giant ([2]; Preemergence, 250 g ai/ha) | Johnsongrass plant response rating [3, 11] | Johnsongrass plant response rating [3, 12] | Plant response rating (0 to 100), Johnsongrass ([3]; Preemergence, 250 g ai/ha) | Johnsongrass plant response rating [3, 10] | Kochia plant response rating [4, 12] | Plant response rating (0 to 100), Kochia ([4]; Preemergence, 250 g ai/ha) | Kochia plant response rating [4, 10] | Lambsquarters plant response rating [5, 11] | Lambsquarters plant response rating [5, 12] | Plant response rating (0 to 100), Lambsquarters ([5]; Preemergence, 250 g ai/ha) | Lambsquarters plant response rating [5, 10] | Nightshade plant response rating [6, 11] | Nightshade plant response rating [6, 12] | Plant response rating (0 to 100), Nightshade ([6]; Preemergence, 250 g ai/ha) | Nightshade plant response rating [6, 10] | Plant response rating (0 to 100), Ragweed ([7]; Preemergence, 250 g ai/ha) | Ragweed plant response rating [7, 10]
40: Plant response rating, Foxtail, Giant ([2]; Postemergence, 125 g ai/ha) | Plant response rating, Rice ([9]; 31 g ai/ha, scale 0 to 100 (0 no effect, 100 complete control))
85: Ragweed plant response rating [7, 11] | Ragweed plant response rating [7, 12] | Plant response rating, Rice ([9]; 125 g ai/ha, scale 0 to 100, 0 no effect, 100 complete control, 13 to 15 days) | Plant response rating, Rice ([9]; 250 g ai/ha, scale 0 to 100 (0 no effect, 100 complete control))
70: Plant response rating, Foxtail, Giant ([2]; Postemergence, 250 g ai/ha)
0: Plant response rating (0 to 100), Foxtail, Giant ([2]; Postemergence, 31 g ai/ha) | Plant response rating (0 to 100), Johnsongrass ([3]; Postemergence, 31 g ai/ha) | Plant response rating, Johnsongrass ([3]; Postemergence, 62 g ai/ha) | Plant response rating, Johnsongrass ([3]; Postemergence, 125 g ai/ha) | Plant response rating (0 to 100), Kochia ([4]; Postemergence, 31 g ai/ha) | Plant response rating, Kochia ([4]; Postemergence, 62 g ai/ha) | Plant response rating, Kochia ([4]; Postemergence, 125 g ai/ha) | Plant response rating, Kochia ([4]; Postemergence, 250 g ai/ha) | Plant response rating (0 to 100), Lambsquarters ([5]; Postemergence, 31 g ai/ha) | Plant response rating, Lambsquarters ([5]; Postemergence, 62 g ai/ha) | Plant response rating, Lambsquarters ([5]; Postemergence, 125 g ai/ha) | Plant response rating, Lambsquarters ([5]; Postemergence, 250 g ai/ha) | Plant response rating (0 to 100), Ragweed ([7]; Postemergence, 31 g ai/ha) | Plant response rating (0 to 100), Velvetleaf ([8]; 31 g ai/ha) | Plant response rating (0 to 100), Velvetleaf ([8]; 62 g ai/ha)
60: Plant response rating, Crabgrass, Large ([1]; 125 g ai/ha) | Plant response rating, Crabgrass, Large ([1]; 250 g ai/ha)
50: Plant response rating, Velvetleaf ([8]; 250 g ai/ha)
